According to patent US5326774A, “Pharmaceutical preparation of antihypertensive, antianginal, antiarrhythmic and antiglaucomic action” (priority 1992, dated 1994):
“And” between values parts separate entries of the source, which are not always exact repeats. Equal values may be shown once. Read-outs that look alike come from different tables or passages of the source.

What was measured:
[1] = test system: intraocular tension; test: Clinical test in 108 patients with glaucoma resistant to conventional therapy; details: human, in vivo
Experimental: The preparation of the invention was tested on 108 patients with different cases of glaucoma resistant to the conventional antiglaucomic therapy. […] A long-term resetting for more than 1 month of intraocular tension was attained in 76% of patients.

[2] = target: T1, β1-adrenoceptor (Rattus norvegicus, UniProt P18090); test: Inhibition of isadrin's positive chronotropic effect, i.v., anesthetized rats; format: in vivo; details: rat, iv, read-out: Dosage inhibiting isadrin's positive chronotropism by 50% (ED50)
T1 construct: positive chronotropic and depressor effects in the anesthetized rats; from tissue; host or cells: whole living rat (heart rate response to isadrin); endogenous receptor
T1 sequence (P18090 whole entry): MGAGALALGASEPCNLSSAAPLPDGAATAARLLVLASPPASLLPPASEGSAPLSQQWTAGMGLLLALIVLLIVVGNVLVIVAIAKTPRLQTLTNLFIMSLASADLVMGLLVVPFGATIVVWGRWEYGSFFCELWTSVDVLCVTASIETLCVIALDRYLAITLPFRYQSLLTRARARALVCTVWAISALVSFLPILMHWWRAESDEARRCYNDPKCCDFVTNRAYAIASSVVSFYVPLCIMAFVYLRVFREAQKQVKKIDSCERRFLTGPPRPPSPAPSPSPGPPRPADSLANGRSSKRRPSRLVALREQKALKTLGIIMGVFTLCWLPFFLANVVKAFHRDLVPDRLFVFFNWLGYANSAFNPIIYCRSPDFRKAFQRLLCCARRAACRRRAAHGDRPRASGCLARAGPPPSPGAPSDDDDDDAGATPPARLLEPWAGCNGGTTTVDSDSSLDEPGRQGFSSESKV

[3] = target: T2, β2-adrenoceptor (Rattus norvegicus, UniProt P10608); test: Inhibition of isadrin's depressor effect, i.v., anesthetized rats; format: in vivo; details: rat, iv, read-out: Dosage inhibiting isadrin's depressor effect by 50%, ED50
T2 construct: positive chronotropic and depressor effects in the anesthetized rats; from tissue; host or cells: whole living rat (blood pressure response to isadrin); endogenous receptor
T2 sequence (P10608 whole entry): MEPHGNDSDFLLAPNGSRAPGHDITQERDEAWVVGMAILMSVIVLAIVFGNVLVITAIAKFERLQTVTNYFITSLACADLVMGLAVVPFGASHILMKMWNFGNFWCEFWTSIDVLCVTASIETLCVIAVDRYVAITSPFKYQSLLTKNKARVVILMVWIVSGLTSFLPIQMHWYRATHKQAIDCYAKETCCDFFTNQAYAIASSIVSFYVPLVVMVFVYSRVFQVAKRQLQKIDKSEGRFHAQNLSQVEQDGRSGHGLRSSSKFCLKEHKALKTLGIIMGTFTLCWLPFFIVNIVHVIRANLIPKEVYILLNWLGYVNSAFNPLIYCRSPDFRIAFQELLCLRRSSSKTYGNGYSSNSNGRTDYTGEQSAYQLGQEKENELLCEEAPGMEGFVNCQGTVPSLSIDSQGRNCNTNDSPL

[4] = test system: mesaton-initiated pressor effect; test: Mesaton-initiated pressor effect in anesthetized rats; format: in vivo, rat; details: for effect on mesaton pressor effect: 3 mg/kg i.v.; for suppression of mesaton pressor effect: 10 mg/kg i.v., average
[5] = test system: arterial pressure; test: Hypotensive activity in anesthetized cats, i.v.; format: in vivo, cat
[6] = test system: electrically induced ventricular fibrillation; test: Threshold of electrically induced ventricular fibrillation in anesthetized cats; format: in vivo, cat
[7] = test system: strophantin-induced arrhythmia; format: in vivo, guinea pig
[8] = test system: coronary vessels; test: Coronary vessel dilatation and myocardial perfusion in anesthetized rats; format: in vivo, rat; details: 0.1 mg/kg i.v. (compound of the invention)
Text: The coronarodilative effect of the compound according to the invention is not associated with its β- and α-adrenoceptor blocking activity and its influence on the systemic perfusion pressure and pump function of the heart. […]

[9] = test system: vascular regions; test: Labeled microsphere method: cardiac output distribution in normotensive rats; format: in vivo, rat
[10] = test system: vascular regions; test: Labeled microsphere method in rats with renovascular hypertension; format: in vivo, rat
[11] = in vivo; details: mouse, iv
Text: LD50 values were estimated by using the Litchfield-Wilckoxon method.

[12] = test system: arterial pressure; test: Arterial pressure and heart rate in conscious normotensive rats, oral; format: in vivo, rat; details: 150 mg/kg
[13] = test system: arterial pressure; test: Antihypertensive effect in rats with renovascular hypertension; format: in vivo, rat; details: same conditions
Experimental: . In rats suffering from renovascular hypertension the compound of the invention in the dosage of 10 mg/kg (injected intramuscularly) lowered with confidence the arterial pressure (from 137±3 to 117±5 mm of Hg column) 30 minutes after being administered. The 2-week course of the administration of the compound according to the invention (10 mg/kg 1 time a day) caused the antihypertensive effect to be enhanced. By the end of the second week the arterial pressure was 110±8.6 mm Hg. […]

[14] = test system: ventricular fibrillation; test: Ventricular fibrillation during acute coronary occlusion and reperfusion in anesthetized dogs; format: in vivo, dog; details: for Ventricular fibrillation during acute occlusion and reperfusion: single animals
[15] = test system: intraocular tension of intact rabbit eyes; details: 1% solution
Experimental: The effects of the compound according to the invention on intraocular tension and hydrodynamics of the eye was tested in 28 chinchilla rabbits with body weight of 2.5-3.5 kg.
The left animal eyes were control wherein using the same procedure a diluent was instilled.

[16] = β-adrenoceptor blocking doses, normotensive rats

CC(C)(C)NC[C@H](O)COc1nsnc1N1CCOCC1 [thymolol]
mechanism of ocular hypotensive effect [1]: associated not only with inhibition of intraocular liquid secretion, but with improvement of its outflow

CC(CCc1ccccc1)NCC(O)c1ccc(O)c(C(N)=O)c1 (stereo not shown) [Labetalol, labetalol]
ED50 [2]: 0.7 ± 0.05 mg/kg | ED50 [3]: 3.3 ± 0.2 mg/kg | effect on mesaton pressor effect [4]: did not change | suppression of mesaton pressor effect [4]: 47% | ED20 ([5]; Felis catus, iv, anesthetized cats, read-out: Dose resulting in lowering of arterial pressure by 20%, ED20): 1 ± 0.09 mg/kg | minimal effective dose ([5]; Felis catus, iv, cats, read-out: dosage from which arterial pressure lowered): 0.1 mg/kg | hypotensive effect compared with compound of the invention ([5]; from 0.1 mg/kg): less pronounced and prolonged effect | threshold of electrically induced ventricular fibrillation ([6]; 1 mg/kg): did not change | threshold of electrically induced ventricular fibrillation ([6]; 5 mg/kg): increased considerably this threshold | value of increasing threshold compared with propranolol and oxprenolol ([6]; 5 mg/kg): higher | Arrhythmogenic dose of strophantin as compared with control: extrasystoles ([7]; 0.3 mg/kg i.v.): 101% | Dose of strophantin as compared with control: ventricular fibrillation ([7]; 0.3 mg/kg i.v.): 113% | Arrhythmogenic dose of strophantin as compared with control: extrasystoles ([7]; 1.0 mg/kg i.v.): 127% | Dose of strophantin as compared with control: ventricular fibrillation ([7]; 1.0 mg/kg i.v.): 131% | Lethal dose of strophantin as compared with control: animal death ([7]; 1.0 mg/kg i.v.): 128% | Arrhythmogenic dose of strophantin as compared with control: extrasystoles ([7]; 3.0 mg/kg i.v.): 136% | Dose of strophantin as compared with control: ventricular fibrillation ([7]; 3.0 mg/kg i.v.): 137% | Lethal dose of strophantin as compared with control: animal death ([7]; 3.0 mg/kg i.v.): 132% | coronary vessel dilatation / myocardial perfusion [8]: did not lead to the dilatation of coronary vessels | nature of vasodilating effect ([9]; dosages to block α-adrenoceptors): slight change of vasodilating nature | most sensible vessels [9, 16]: the vessels of skeletal muscles, testicles, spleen, kidneys and adrenals | vasodilating properties [9, 16]: exhibits vasodilating properties | vasodilating properties [10]: shows vasodilating properties

CC(C)NCC(O)COc1cccc2[nH]ccc12 (stereo not shown) [Pindolol, pindolol, reference compound]
ED50 [2]: 0.025 ± 0.002 mg/kg | ED50 [3]: 0.02 ± 0.002 mg/kg | threshold of electrically induced ventricular fibrillation ([6]; dosages tested): no effect | LD50 at 72 h [11]: 29 mg/kg

CC(C)NCC(O)COc1cccc2ccccc12 (stereo not shown) [Propranolol, propranolol]
arterial pressure [12]: small influence on arterial pressure | heart rate [12]: decreased the heart rate slightly | antihypertensive efficacy [13]: low efficacy | threshold of electrically induced ventricular fibrillation ([6]; 5 mg/kg): increased considerably this threshold | Arrhythmogenic dose of strophantin as compared with control: extrasystoles ([7]; guinea pig, in vivo): 92.7% and 110% | Dose of strophantin as compared with control: ventricular fibrillation ([7]; guinea pig, in vivo): 97.9% and 106.3% and 120% | prevention of ventricular fibrillation in temporary coronary occlusion ([14]; 1 mg/kg i.v.): the same effect | Ventricular fibrillation during acute occlusion and reperfusion ([14]; 10 min after injection): R | Ventricular fibrillation during acute occlusion and reperfusion ([14]; 60 min after injection): R | coronary vessel dilatation / myocardial perfusion [8]: unfavourable effect on transmural, myocardial perfusion | Average decrease of intraocular tension OD, M ± m ([15]; 2 hours): 2.6 ± 0.3 ram of Hg column | Average decrease of intraocular tension OD, M ± m ([15]; 4 hours): 2.2 ± 0.2 ram of Hg column

C=CCOc1ccccc1OCC(O)CNC(C)C (stereo not shown) [Oxprenolol, oxprenolol]
ED50 [2]: 0.26 ± 0.025 mg/kg | ED50 [3]: 0.055 ± 0.005 mg/kg | effect on mesaton pressor effect [4]: did not change | suppression of mesaton pressor effect [4]: 10% | threshold of electrically induced ventricular fibrillation ([6]; 1 mg/kg): did not change | threshold of electrically induced ventricular fibrillation ([6]; 5 mg/kg): increased considerably this threshold | Arrhythmogenic dose of strophantin as compared with control: extrasystoles ([7]; guinea pig, in vivo): 105% and 120% and 110% | Dose of strophantin as compared with control: ventricular fibrillation ([7]; guinea pig, in vivo): 101% and 110% and 121% | Lethal dose of strophantin as compared with control: animal death ([7]; guinea pig, in vivo): 102% and 112%
